Legend:
[1] = system: HCV genotype 1a replicon; experiment: HCV replicon assay, genotype 1a (cell ELISA for replicon-encoded NS3/4A); format: cell-based; details: Hepatitis C virus, 96 h, read-out: 1a IC50
Procedure: (§1) Measurement of inhibition by compounds was performed using the HCV replicon system. Several different replicons encoding different HCV genotypes or mutations were used. In addition, potency measurements were made using different formats of the replicon assay, including different ways of measurements and different plating formats. See Jan M. Vrolijk et al., A replicons-based bioassay for the measurement of interferons in patients with chronic hepatitis C, 110 J. V[…] 201 (2003); Steven S. Carroll et al., Inhibition of Hepatitis C Virus RNA Replication by 2′-Modified Nucleoside Analogs, 278(14) J. BIOLOGICAL CHEMISTRY 11979 (2003). However, the underlying principles are common to all of these determinations, and are outlined below.
(§2) Stable neomycin phosphotransferase encoding replicons-harboring cell lines were used, so all cell lines were maintained under G418 selection prior to the assay. Potency was determined using a cell ELISA assay with an antibody to the replicons encoded NS3/4a protease. See Caterina Trozzi et al., In Vitro Selection and Characterization of Hepatitis C Virus Serine Protease Variants Resistant to an Active-Site Peptide Inhibitor, 77(6) J. Virol. 3669 (2003). To initiate an assay, replicon cells were plated in the presence of a dilution series of test compound in the absence of G418. Typically, the assays were performed in a 96-well plate formate for manual operation, or a 384-well plate format for automated assay. Replicon cells and compound were incubated for 96 hours. At the end of the assay, cells were washed free of media and compound, and the cells were then lysed. RNA was quantified indirectly through detection of replicon-encoded NS3/4A protein levels, through an ELISA-based assay with an antibody specific for NS3/4A. IC50 determinations were calculated as a percentage of a DMSO control by fitting the data to a four-parameter fit function and the data obtained is provided in the table below.
(§3) Data for selected compounds of the present invention was obtained for genotypes 1a and 1b using this method and is provided in the table below: […]

[2] = system: HCV genotype 1b replicon; experiment: HCV replicon assay, genotype 1b (cell ELISA for replicon-encoded NS3/4A); format: cell-based; details: Hepatitis C virus, 96 h, read-out: 1b IC50
Procedure: as §1, §2, §3

Row | Structure (SMILES) | IC50 [1] [nM] | IC50 [2] [nM]
1 | CNC(=O)c1c(-c2ccc(OC)nc2)oc2cc(N(C)S(C)(=O)=O)c(-c3ccc4c(n3)-c3nc5c(F)cccc5n3CO4)cc12 [Compound 20, 5-(11-fluoro-6H-benzo[4,5]imidazo[1,2-c]pyrido[2,3-e][1,3]oxazin-2-yl)-2-(6-methoxypyridin-3-yl)-N-methyl-6-(N-methylmethylsulfonamido)benzofuran-3-carboxamide] | 3.7 | 2.5
2 | CCn1cc(-c2oc3cc(N(C)S(C)(=O)=O)c(-c4ccc5c(n4)-c4cc6c(F)cccc6n4CO5)cc3c2C(=O)NC)cn1 [Compound 14] | 9.1 | 18
3 | CNC(=O)c1c(-c2ccc(C(F)(F)F)nc2)oc2cc(N(C)S(C)(=O)=O)c(-c3ccc4c(n3)-c3cc5c(F)cccc5n3CO4)cc12 [Compound 35] | 2.8 | 3.1
